Target: T1, MAP2K1 (MEK1) (Homo sapiens, UniProt Q02750)
T1 construct: purchased Thermo Fisher Scientific (Life Technologies) SelectScreen
Assay: SelectScreen Z'LYTE
Format: biochemical
Settings: ATP 100 µM
In short: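 Compound tested in SelectScreen activity assays, Z'LYTE for CSF1R, CDK1/cyclin B and MAP2K6 and Adapta for CAMK1. ATP for CAMK1 was listed as 10, and Km app was used for CSF1R. Results are expressed in percent.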

T1 sequence (Q02750 whole entry): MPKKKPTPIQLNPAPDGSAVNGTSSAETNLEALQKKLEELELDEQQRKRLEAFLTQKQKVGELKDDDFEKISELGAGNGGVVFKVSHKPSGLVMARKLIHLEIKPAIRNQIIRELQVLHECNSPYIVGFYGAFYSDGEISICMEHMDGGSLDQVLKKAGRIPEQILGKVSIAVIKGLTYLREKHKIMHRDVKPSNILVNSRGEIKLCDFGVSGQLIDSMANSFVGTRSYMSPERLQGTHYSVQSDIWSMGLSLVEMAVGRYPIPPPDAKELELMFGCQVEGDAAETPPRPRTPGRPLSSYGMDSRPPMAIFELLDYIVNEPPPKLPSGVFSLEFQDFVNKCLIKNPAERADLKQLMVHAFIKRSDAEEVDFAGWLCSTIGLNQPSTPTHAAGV

SMILES: CN(C(=O)CN1CCOCC1)c1ccc2sc3c(-c4cccc5c(=O)cc(N6CC7CCC(C6)O7)oc45)cccc3c2c1 [NU5455]
- inhibition at 1 µM: 8.8%
